# Assay results published in patent publication US20110039762A1, “TARGETED ANTIMICROBIAL MOIETIES” (C3 JIAN, INC., priority 2009, published 2011).
# “Also recorded” adds a separate entry of the source.
# System: microorganisms (e.g., bacteria, yeasts, fungi)
# Test: Targeting peptide binding to target microorganisms (Table 3)
# Details: microorganism the targeting peptide binds; binding in aqueous buffers varied by peptide solubility, preferably 1x PBS
row,Substance,Target(s)
1,1T-94 (DQVAHSGDMLVQARRRDS; Peptide with targeting and/or antimicrobial activity) [Peptide 1T-94],S. mitis; also recorded: S. mutans; also recorded: S. oralis
2,1T-195 (AASGFTYCASNGVWHPY; Peptide with targeting and/or antimicrobial activity) [Peptide 1T-195],S. mutans
3,1T-121 (FAKETGFGIGGAQEGWWIIADIYGPNPF; Peptide with targeting and/or antimicrobial activity) [Peptide 1T-121],S. gordonii; also recorded: S. mitis; also recorded: S. mutans; also recorded: S. oralis; also recorded: S. salivarious; also recorded: S. sanguinis
4,1T-282 (ISLVFPAYT; Peptide with targeting and/or antimicrobial activity) [Peptide 1T-282],F. nucleatum; also recorded: P. gingivalis; also recorded: S. gordonii; also recorded: S. mitis; also recorded: S. mutans; also recorded: S. oralis; also recorded: S. salivarious; also recorded: S. sanguinis
5,1T-69 (ILSQEADRKKLF; Peptide with targeting and/or antimicrobial activity) [Peptide 1T-69],S. mutans; also recorded: P. aeruginosa
6,1T-53 (SDILAEMFEKGELQTLVKDAAAKANA; Peptide with targeting and/or antimicrobial activity) [Peptide 1T-53],P. aeruginosa
7,1T-59 (AVGNNLGKDNDSGHRGKKHRKHKHR; Peptide with targeting and/or antimicrobial activity) [Peptide 1T-59],S. aureus; also recorded: S. epidermidis; also recorded: P. aeruginosa
8,1T-274 (ETTTEINAIKLHRIKQRSPQGTRRVN; Peptide with targeting and/or antimicrobial activity) [Peptide 1T-274],F. nucleatum; also recorded: S. mutans; also recorded: S. oralis; also recorded: S. sanguinis
9,1T-67 (GQRQRLTCGRVSGCSEGPSREAAR; Peptide with targeting and/or antimicrobial activity) [Peptide 1T-67],S. aureus; also recorded: S. epidermidis; also recorded: C. jeikeium; also recorded: C. xerosis; also recorded: C. striatum; also recorded: P. aeruginosa
10,1T-54 (RWVSCNPSWRIQ; Peptide with targeting and/or antimicrobial activity) [Peptide 1T-54],S. epidermidis; also recorded: C. xerosis; also recorded: C. striatum; also recorded: P. aeruginosa
11,1T-288 (RWVGGEPSADIYLSAKDTKT; Peptide with targeting and/or antimicrobial activity) [Peptide 1T-288],F. nucleatum; also recorded: S. gordonii; also recorded: S. salivarious; also recorded: S. sanguinis
12,1T-159 (IFSLHHFALICSEMGTFAVSKRAKYKWEVL; Peptide with targeting and/or antimicrobial activity) [Peptide 1T-159],P. gingivalis
13,1T-83 (QKPRKNETFIGYIQRYDIDGNGYQSLPCPQN; Peptide with targeting and/or antimicrobial activity) [Peptide 1T-83],S. pneumoniae
14,1T-27 (ALFVSLEQFLVVVAKSVFALCHSGTLS; Peptide with targeting and/or antimicrobial activity) [Peptide 1T-27],S. mutans; also recorded: S. aureus; also recorded: S. epidermidis; also recorded: C. jeikeium; also recorded: C. xerosis; also recorded: C. striatum; also recorded: P. aeruginosa
15,1T-259 (EKLKKILLKLAVCGKAWYTL; Peptide with targeting and/or antimicrobial activity) [Peptide 1T-259],F. nucleatum; also recorded: P. gingivalis; also recorded: T. denticola; also recorded: S. mitis; also recorded: S. mutans; also recorded: S. oralis; also recorded: S. sanguinis
16,1T-42 (TVLDWLSLALATGLFVYLLVALLRADRA; Peptide with targeting and/or antimicrobial activity) [Peptide 1T-42],S. aureus; also recorded: S. epidermidis; also recorded: C. xerosis; also recorded: C. striatum; also recorded: P. aeruginosa

# Same assay, conditions: microorganism(s) the targeting peptide binds; binding in aqueous buffers depending on peptide solubility, preferably 1x PBS
row,Substance,Target(s)
1,PF-372 (KKQDKRIEDKYKRMKKGD; Peptide with targeting and/or antimicrobial activity),C. jeikeium; also recorded: C. jejuni
2,PF-308 (QQYLILDRM; Peptide with targeting and/or antimicrobial activity),C. difficile
3,PF-337 (YMTKKLVEMAERQMAGK; Peptide with targeting and/or antimicrobial activity),S. epidermidis
4,PF-275 (LVSGVANTVKNTAHTVGNTAKHAGHVAADTTVKATKKQQVK; Peptide with targeting and/or antimicrobial activity),S. mutans
5,PF-242 (KLFEDPLIKSKAVENFQTTWHEQCLAKELAKNM; Peptide with targeting and/or antimicrobial activity),S. mutans; also recorded: E. coli
6,PF-161 (RGRALASTATTRPARRRR; Peptide with targeting and/or antimicrobial activity),S. epidermidis; also recorded: M. luteus; also recorded: E. coli; also recorded: C. jejuni
7,PF-351 (YLFFKGKKVAEEEATKDEVKR; Peptide with targeting and/or antimicrobial activity),S. mutans
8,PF-152 (VGYFIWKDSHSRKG; Peptide with targeting and/or antimicrobial activity),S. epidermidis and C. albicans and MRSA and E. faecalis and C. jeikeium
9,PF-134 (GKAMKRQDCSAL; Peptide with targeting and/or antimicrobial activity),S. epidermidis; also recorded: C. jeikeium
10,PF-314 (ECLKKAIKSKALNKAFKIDVPDEVYDNLLMELEEYEK; Peptide with targeting and/or antimicrobial activity),S. mutans
11,PF-219 (FLALAVIAGLFKVILIYAAPYLK; Peptide with targeting and/or antimicrobial activity),S. epidermidis; also recorded: M. luteus; also recorded: P. aeruginosa; also recorded: A. baumannii
12,PF-384 (HISKERFEAY; Peptide with targeting and/or antimicrobial activity),E. faecalis; also recorded: C. jeikeium; also recorded: C. jejuni
13,PF-185 (RPAQARQGPGGLIADRHIRA; Peptide with targeting and/or antimicrobial activity),E. coli; also recorded: P. aeruginosa
14,PF-245 (MNDVKPVVQPKQTLKAFLVQLLSVRAGVYIKQNNQLPKTKG; Peptide with targeting and/or antimicrobial activity),S. epidermidis; also recorded: M. luteus; also recorded: P. aeruginosa; also recorded: A. baumannii

# Same assay, conditions: microorganism(s) the targeting peptide binds; peptide binding conducted in aqueous buffers varied by peptide solubility, preferably 1x PBS
row,Substance,Target(s)
1,PF-501 (GSTAHKSPIGSTNNQWGMKKTPTD; Peptide with targeting and/or antimicrobial activity),S. mutans
2,PF-409 (DLVQSILSEFKKSG; Peptide with targeting and/or antimicrobial activity),S. epidermidis and MRSA and C. jeikeium and C. jejuni
3,PF-490 (RLILVSGNATVQK; Peptide with targeting and/or antimicrobial activity),S. mutans; also recorded: E. coli
4,PF-508 (VSTFGKVVKVVDEK; Peptide with targeting and/or antimicrobial activity),S. mutans

# Same assay, conditions: peptide binding in aqueous buffers varied by peptide solubility; preferably 1x PBS
row,Substance,Target(s) (microorganisms bound by the targeting peptide)
1,PF-C008 (AQPRRTWLVNFGEVPSPGLTNDGMPDH; Peptide with targeting and/or antimicrobial activity),A. naeslundii
2,PF-735 (YDPLFPNDKN; Peptide with targeting and/or antimicrobial activity),S. mutans; also recorded: E. coli
3,PF-S026 (TELKYNGEEYLLLTQRDILAVIEK; Peptide with targeting and/or antimicrobial activity),S. epidermidis and MRSA and C. jeikeium
4,PF-679 (CRARFIRR; Peptide with targeting and/or antimicrobial activity),S. mutans; also recorded: E. coli
5,PF-792 (ALHASGIQAI; Peptide with targeting and/or antimicrobial activity),S. mutans
6,PF-C003 (FCSVDHDVITIAADHVKQGAEA; Peptide with targeting and/or antimicrobial activity),A. naeslundii; also recorded: P. gingivalis; also recorded: S. mutans
7,PF-C134 (NELMKYPATLTATATTPGIKYSHLCSVCL; Peptide with targeting and/or antimicrobial activity),A. naeslundii; also recorded: F. nucleatum; also recorded: P. gingivalis; also recorded: S. mutans; also recorded: T. denticola
8,PF-717 (PQSEVTFENIYAPKANGGGLYGI; Peptide with targeting and/or antimicrobial activity),E. coli
9,PF-788 (GLITVFAGTARILQLRRAAKKTHAAALR; Peptide with targeting and/or antimicrobial activity),Mycobacteria spp.
10,PF-790 (PAGPDHLDQRDHR; Peptide with targeting and/or antimicrobial activity),Mycobacteria spp.
